{"source": "patent US7662412B2", "about": "“Traditional Chinese medicine composition to treat rheumatoid arthritis and preparation method thereof” (priority 2005, dated 2010)", "key": {"[1]": {"system": "interleukin-1 (IL-1)", "assay": "IL-1 activity of LPS-induced peritoneal macrophages of adjuvant arthritis rats (thymocyte bioassay)", "assay_type": "in vivo, rat", "conditions": "AA rats, 5 mg; 570 nm; model group 0.87 ± 0.03", "description": "Fizzer complete adjuvant (from Sigma Co.) was emulsified and injected subcutaneously and sterilely 0.1 ml into the right meta voix pedis of each rat (♂, 160±20 g) to establish a model of adjuvant-induced arthritis.\nPreparation of peritoneal macrophage: Execute rats at 25th days after injecting complete adjuvant, then rapidly inject proper amount of Hank's solution into the belly of them, and rub their abdominal wall several times before collecting peritoneal fluid. Wash it with Hank's solution containing 5% calf serum twice, then prepare 1×10^6/mL cell suspension with wholly swelling RPMI1640. Transfer into a culture plate with 24 wells, 1 ml each well. Incubate them in a 5% CO2 incubator overnight at a temperature of 37° C., abandon the supernatant fluid, wash with pre-warmed Hank's solution containing 5% calf serum at 37° C. twice, and remove un-adherent cell. The residue was peritoneal macrophage.\n2. IL-1 induction: Add 10 μg/mL lipopolysaccharide (LPS) to the above culture plate with 24 wells, then incubate for 24 hours, centrifuge (2000 rpm, 5 min), collect the […], and filter with micropore filter. This solution was the IL-1 sample to be detected. 3. […]"}, "[2]": {"system": "DTH T cell subsets (L3T4+, Lyt-2+)", "assay": "DTH T cell subsets of mouse (DNFB, splenic lymphocytes, immunofluorescence)", "conditions": "5 mg"}}}
{"smiles": "C[C@]12C=CC(=O)C=C1CC[C@@H]1[C@@H]2C(=O)C[C@@]2(C)[C@H]1CC[C@]2(O)C(=O)CO", "note": "[Prednisone]", "values": [{"measurement": "OD Value (IL-1 activity)", "setting": "[1]", "result": "0.34 ± 0.02"}, {"measurement": "Cells number L3T4^+", "setting": "[2]", "result": "59.6 ± 7.5", "unit": "%"}, {"measurement": "Cells number Lyt-2^+", "setting": "[2]", "result": "56.2 ± 3.8", "unit": "%"}, {"measurement": "L3T4^+/Lyt-2^+", "setting": "[2]", "result": "1.21 ± 0.14"}]}
